Data taken from US11071731B2, “Allosteric modulators of the mu opioid receptor” (Chiromics, LLC, priority 2017, dated 2021).

Tests used:
mu opioid receptor (MOR) [1] = biological target: T1, mu opioid receptor (MOR) (Homo sapiens, UniProt P35372); assay: PathHunter β-arrestin recruitment assay, PAM mode with EC20 endomorphin-1; type: cell-based
How it was run: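 β-Arrestin recruitment to the receptor was tracked by chemiluminescent β-galactosidase activity from complementing fragments (ED on receptor, EA on β-arrestin). Per-compound outputs were EC50 and percent maximal response.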

mu opioid receptor (MOR) [2] = biological target: T1, mu opioid receptor (MOR); assay: Hit Hunter cAMP signaling assay (adenylyl cyclase inhibition), PAM mode with EC20 endomorphin-1; type: cell-based
MOR = MOR (Homo sapiens, UniProt P35372); assay: cell-based; conditions: EC20 morphine agonism of MOR
Sprague-Dawley rats = assay: Respiratory depression: blood oxygen saturation by pulse oximetry; type: in vivo; conditions: subcutaneous; morphine 10 mg/kg, compound 9 15, 30, 60 mg/kg; 90 minutes
Procedure: Respiratory depression is a significant side effect associated with opioid treatment of acute and chronic pain. Drug-related overdose deaths are often a function of the respiratory depression which occurs with opioid use. Efforts to generate analgesics that dissociate pain relief from side effects are critical to the advancement of public health. […] […].
Blood oxygen saturation was assessed in awake rats with the MouseOx oximeter system (Starr Life Sciences, Holliston, Mass.). Up to 5 samples were measured every 5 minutes for 15 minutes prior to dosing and 90 minutes after dosing. Each animal was habituated to the device over several days prior to the study.

T1 sequence (P35372 whole entry, the tested form may be a part): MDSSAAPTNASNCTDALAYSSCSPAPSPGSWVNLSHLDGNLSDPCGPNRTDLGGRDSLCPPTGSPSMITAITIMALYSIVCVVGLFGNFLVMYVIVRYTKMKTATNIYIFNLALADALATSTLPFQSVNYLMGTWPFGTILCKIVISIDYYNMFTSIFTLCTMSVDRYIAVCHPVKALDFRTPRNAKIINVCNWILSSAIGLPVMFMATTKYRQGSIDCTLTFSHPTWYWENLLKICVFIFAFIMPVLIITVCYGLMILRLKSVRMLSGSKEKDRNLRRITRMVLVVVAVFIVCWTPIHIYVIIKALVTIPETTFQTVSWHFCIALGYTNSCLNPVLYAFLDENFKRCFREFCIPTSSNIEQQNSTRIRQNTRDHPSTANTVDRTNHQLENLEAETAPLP
Sequence of MOR (P35372 whole entry): as the sequence (P35372 whole entry, the tested form may be a part) above

## Fc1cnc(Cl)nc1N1CCCCC1c1cccc(C(F)(F)F)c1 (single isomer, unassigned) [compound 9]
Mu opioid receptor (MOR) [1]; EM1-mediated MOR agonism, read-out: RC50 for β-arrestin recruitment
  EC50: 360 nM
Mu opioid receptor (MOR) [1]; maximal response for β-arrestin recruitment
  β-arr Max. Resp.: F (F represents a maximal response of > 60%)
Mu opioid receptor (MOR) [1]; β-arrestin recruitment, read-out: β-arr. EC50
  EC50: < 700 nM
Mu opioid receptor (MOR) [1]; β-arrestin, EC20 EM-1 agonism of MOR
  Max. Response: 210
Mu opioid receptor (MOR) [2]; RC50 for adenylyl cyclase inhibition, EM1-mediated MOR agonism
  EC50: 590 nM
Mu opioid receptor (MOR) [2]; cAMP EC50, adenylyl cyclase inhibition
  EC50: < 700 nM
Mu opioid receptor (MOR) [2]; cAMP, EC20 EM-1 agonism of MOR
  Max. Response: 75
Mu opioid receptor (MOR) [2]; maximal response for adenylyl cyclase inhibition
  cAMP Max. Resp.: F (F represents a maximal response of > 60%)
MOR; RC50, β-arrestin
  EC50: 10700 nM
MOR; β-arrestin
  Max. Response: 456
Sprague-Dawley rats
  oxygen saturation / respiratory depression: did not induce respiratory depression
